Assay results as given in patent US10961234B2, “Oxazole derivatives for use in the treatment of cancer” (LIFEARC, priority 2016, dated 2021).

Assays:
[1] = target: T1, WT full length PAICS (Homo sapiens, UniProt P22234); test: Biochemical assay to measure PAICS activity (Transcreener ADP2 FI, SAICAR synthetase reaction); details: PAICS 2.5 nM, 30 mins pre-incubation, ADP detection by fluorescence intensity
T1 construct: 5 μl WT full length PAICS (final assay concentration, fac, 2.5 nM) in basic buffer
T1 sequence (P22234 1-425): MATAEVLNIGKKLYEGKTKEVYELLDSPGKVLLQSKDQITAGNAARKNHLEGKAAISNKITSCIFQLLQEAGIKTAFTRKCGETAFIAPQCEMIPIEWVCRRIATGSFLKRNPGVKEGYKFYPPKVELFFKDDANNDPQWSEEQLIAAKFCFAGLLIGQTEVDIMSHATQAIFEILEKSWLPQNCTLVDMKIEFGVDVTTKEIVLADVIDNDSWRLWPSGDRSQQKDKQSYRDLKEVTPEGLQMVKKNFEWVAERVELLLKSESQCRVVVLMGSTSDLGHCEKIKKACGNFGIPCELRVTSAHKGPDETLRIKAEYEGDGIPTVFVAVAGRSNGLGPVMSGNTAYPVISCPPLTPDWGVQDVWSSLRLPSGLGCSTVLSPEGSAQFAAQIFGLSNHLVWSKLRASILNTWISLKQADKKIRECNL
Excerpt: The biochemical assay was used to measure PAICS SAICAR synthetase-mediated conversion of CAIR, aspartic acid and ATP to SAICAR, ADP and inorganic phosphate (PI), post-AIR/CAIR equilibration (see FIG. 3). This was achieved by detecting the ADP generated during the reaction, using Bellbrook Lab's Transcreener ADP^2 FI assay. An increase in the fluorescence intensity is directly proportional to the amount of PAICS activity.
The Transcreener ADP^2 FI assay is a homogeneous competitive displacement fluorescence intensity assay which uses direct immunodetection of ADP. Displacement of the tracer by ADP causes an increase in the fluorescence at excitation 590 nm and emission 617 nm (FIG. 3).
5 μl WT full length PAICS (final assay concentration, fac, 2.5 nM) in basic buffer, added to black, non-binding, 384-well plates (Corning #3575), columns 1 to 22.5 μl basic buffer was added to columns 23+24 (negative control). PAICS stock at 31.9 μM from the PI's lab (Steve Firestine). Basic buffer contained 50 mM Tris-HCl pH8 and 0.5 mM EDTA, fac.
1 μl compound in 100% DMSO added per well, or 1 μl 100% DMSO to positive controls (columns 1+2) and negative controls (columns 23+24). Final assay top concentration of compound either 1 mM or 30 μM, serially diluted with half-log dilutions across the plate in duplicate (one 10-point concentration response curve across wells 3 to 12, another across 13 to 22). Compounds pre-incubated with PAICS enzyme for 30 mins at RT.
2 μl CAIR added (fac 10 μM) in basic buffer plus 25 mM MgCl2 and 50 mM KHCO3 fac to all wells. CAIR stock 50 mM from Steve Firestine's lab. 1 hr RT incubation for AIR-CAIR equilibration. NB: ˜50% CAIR is decarboxylated during equilibration therefore 5 μM remains for the synthetase reaction.
2 μl ATP/aspartic acid added (fac 30 μM/180 μM) in reaction buffer to all wells. 30 mins RT incubation for appropriate level of ATP turnover. Reaction buffer contained basic buffer plus 10 mM DTT, 0.01% BSA and 0.01% Brij 35, fac.
10 μl ADP detection reagent added to all wells (as per instructions, Transcreener ADP^2 FI kit, BellBrook Labs #3013-10K). Incubation for 1 h at RT to allow antibody equilibration. Fluorescence intensity determined using a Tecan Safire2 (excitation at 590 nm, emission at 617 nm).

[2] = tested on: LM2 and MDA-MB-231 breast cancer cell lines; test: PAICS 2D cell proliferation assay; assay type: cell-based; details: Homo sapiens; 72 hours incubation; cell line (LM2 or MDA-MB-231) not given
Method: Frozen cryovial stocks of LM2 and MDA-MB-231 breast cancer cell lines were thawed and cultured in 4.5 g/L glucose DMEM (31966-047, Invitrogen) supplemented with 10% Fetal Bovine Serum (10500-064, Invitrogen) until confluent in a T175 flask. Cells were incubated at 37° C. with 5% CO2 in a humidified incubator.
Cells were collected from T175 flasks by washing with PBS (10010-056, Invitrogen) and dissociated using Accutase (A6964, Sigma Aldrich). This was followed by centrifuging (1200 rpm, 5 min) and resuspending the cells in 10 ml of media containing 1% penicillin/streptomycin (15140-122, Invitrogen). Cells were counted by trypan blue exclusion method using an automated cell counter (Cellometer) and diluted to a concentration of 40,000/ml. 1000 cells were then seeded into 384-well white-walled plates (Corning, 3707) in a volume of 25 μl. Plates were incubated overnight at 37° C. with 5% CO2.
After 24 hours, PAICS compounds were added onto the assay plates using an HP D300 Digital Dispenser (Hewlett Packard). 10 mM stocks were used and dispensed as a 10 point concentration response curve (CRC) ½ log dilution series with a final top concentration of 100 μM. Controls were added onto each plate: positive controls included Staurosporine CRC (100 μM stock dispensed as a 10 point CRC ½ log dilution series with a final top concentration of 1 μM) and PAICS compound MRT00211919 (10 mM stock dispensed as a 10 point CRC ½ log dilution series with a final top concentration of 100 μM); a high control of Staurosporine (0.1 μM (LM2), 0.316 μM (MDA-MB-231) FAC) and a low control of media containing 1% DMSO. A final concentration of 1% DMSO was then added across the plates for normalisation. Following compound addition, assay plates were incubated for 72 hours at 37° C. with 5% CO2.
After 72 h incubation, dead and viable cells were measured in each assay plate. Cytotoxicity was assessed through fluorescent DNA staining using the CellTox™ Green Cytotoxicity Assay kit (G8743, Promega) following the manufacturer's multiplexing protocol. Impaired cell membrane integrity results in the access of dye to stain DNA allowing quantification of dead cells. Cell viability was determined following ATP quantification using the CellTiter-Glo® Luminescent Cell Viability Assay kit (G7572, Promega) following the manufacturer's protocol. ATP released from lysed cells allowed for the generation of a signal proportional to the number of cells present in the well. All endpoint reads were performed using the PheraSTAR Plus (BMG Labtech). Data is expressed as % viable cells and % dead cells against controls (mean±SEM of duplicate curves).

Row | Structure (SMILES) | IC50 [1] [nM] | EC50 [2] [nM]
1 | N#Cc1nn(C2CCNCC2)cc1-c1ccc(Cl)c(NC(=O)c2coc(N)n2)c1 [Example 53, 2-Amino-N-(2-chloro-5-(3-cyano-1-(piperidin-4-yl)-1H-pyrazol-4-yl)phenyl)oxazole-4-carboxamide] | 10 to 25 | 100 to 250
2 | Nc1nc(C(=O)Nc2cc(-c3ccn(C4CCNCC4)n3)ccc2Cl)co1 [Example 54, 2-amino-N-{2-chloro-5-[1-(piperidin-4-yl)-1H-pyrazol-3-yl]phenyl}-1,3-oxazole-4-carboxamide] | 10 to 25 | 250 to 500
3 | Cc1nn(C2CCNCC2)cc1-c1ccc(Cl)c(NC(=O)c2coc(N)n2)c1 [Example 55, 2-Amino-N-(2-chloro-5-(3-methyl-1-(piperidin-4-yl)-1H-pyrazol-4-yl)phenyl)oxazole-4-carboxamide] | 10 to 25 | 100 to 250
4 | CCNCCn1cc(-c2ccc(Cl)c(NC(=O)c3coc(N)n3)c2)cn1 [Example 56, 2-Amino-N-(2-chloro-5-(1-(2-(ethylamino)ethyl)-1H-pyrazol-4-yl)phenyl)oxazole-4-carboxamide] | 10 to 25 | 100 to 250
5 | CN1CCN(CCn2cc(-c3ccc(Cl)c(NC(=O)c4coc(N)n4)c3)cn2)CC1 [Example 57, 2-Amino-N-(2-chloro-5-(1-(2-(4-methylpiperazin-1-yl)ethyl)-1H-pyrazol-4-yl)phenyl)oxazole-4-carboxamide] | 25 to 100 | 250 to 500
6 | CN(C)CCNC(=O)Cn1cc(-c2ccc(Cl)c(NC(=O)c3coc(N)n3)c2)cn1 [Example 58, 2-Amino-N-{2-chloro-5-[1-(2-{[2-(dimethylamino)ethyl]amino}-2-oxoethyl)-1H-pyrazol-4-yl]phenyl}-1,3-oxazole-4-carboxamide] | 25 to 100 | 250 to 500
7 | CN(C)C1CCN(C(=O)Cn2cc(-c3ccc(Cl)c(NC(=O)c4coc(N)n4)c3)cn2)CC1 [Example 59, 2-Amino-N-[2-chloro-5-(1-{2-[4-(dimethylamino)piperidin-1-yl]-2-oxoethyl}-1H-pyrazol-4-yl)phenyl]-1,3-oxazole-4-carboxamide] | 25 to 100 | 250 to 500
8 | CC1CN(C(=O)Cn2cc(-c3ccc(Cl)c(NC(=O)c4coc(N)n4)c3)cn2)CCN1 (centres unmarked) [Example 60, 2-Amino-N-(2-chloro-5-{1-[2-(3-methylpiperazin-1-yl)-2-oxoethyl]-1H-pyrazol-4-yl}phenyl)-1,3-oxazole-4-carboxamide] | > 100 | 250 to 500
9 | CN1CCC(NC(=O)Cn2cc(-c3ccc(Cl)c(NC(=O)c4coc(N)n4)c3)cn2)CC1 [Example 61, 2-Amino-N-[2-chloro-5-(1-{2-[(1-methylpiperidin-4-yl)amino]-2-oxoethyl}-1H-pyrazol-4-yl)phenyl]-1,3-oxazole-4-carboxamide] | 25 to 100 | 250 to 500
10 | CN(C)CC(=O)N1CCC(n2cc(-c3ccc(Cl)c(NC(=O)c4coc(N)n4)c3)cn2)CC1 [Example 62, 2-Amino-N-(2-chloro-5-{1-[1-(N,N-dimethylglycyl)piperidin-4-yl]-1H-pyrazol-4-yl}phenyl)-1,3-oxazole-4-carboxamide] | > 100 | 100 to 250
11 | CN(C)CCC(=O)N1CCC(n2cc(-c3ccc(Cl)c(NC(=O)c4coc(N)n4)c3)cn2)CC1 [Example 63, 2-Amino-N-(2-chloro-5-{1-[1-(N,N-dimethyl-beta-alanyl)piperidin-4-yl]-1H-pyrazol-4-yl}phenyl)-1,3-oxazole-4-carboxamide] | > 100 | 250 to 500
12 | CN(C)CCCC(=O)N1CCC(n2cc(-c3ccc(Cl)c(NC(=O)c4coc(N)n4)c3)cn2)CC1 [Example 64, 2-Amino-N-[2-chloro-5-(1-{1-[4-(dimethylamino)butanoyl]piperidin-4-yl}-1H-pyrazol-4-yl)phenyl]-1,3-oxazole-4-carboxamide] | > 100 | 250 to 500
13 | CN(C)CCC(=O)N1CC(Cn2cc(-c3ccc(Cl)c(NC(=O)c4coc(N)n4)c3)cn2)C1 [Example 65, 2-Amino-N-[2-chloro-5-{1-([1-(N,N-dimethyl-beta-alanyl)azetidin-3-yl]methyl}-1H-pyrazol-4-yl)phenyl]-1,3-oxazole-4-carboxamide] | 25 to 100 | 250 to 500
14 | Nc1nc(C(=O)Nc2cc(-c3cnn(C4CCN(CCO)CC4)c3)ccc2Cl)co1 [Example 66, 2-Amino-N-(2-chloro-5-{1-[1-(2-hydroxyethyl)piperidin-4-yl]-1H-pyrazol-4-yl}phenyl)-1,3-oxazole-4-carboxamide] | > 100 | 100 to 250
15 | Nc1nc(C(=O)Nc2cc(-c3ccc(OC4CCNC4)nc3)ccc2Cl)co1 (centres unmarked) [Example 68, 2-Amino-N-(2-chloro-5-(6-(pyrrolidin-3-yloxy)pyridin-3-yl)phenyl)oxazole-4-carboxamide] | 10 to 25 | 250 to 500
16 | Nc1nc(C(=O)Nc2cc(-c3ccc(OCC4CCCNC4)nc3)ccc2Cl)co1 (centres unmarked) [Example 69, 2-Amino-N-(2-chloro-5-(6-(piperidin-3-ylmethoxy)pyridin-3-yl)phenyl)oxazole-4-carboxamide] | 10 to 25 | 250 to 500
17 | CNCCCOc1ccc(-c2ccc(Cl)c(NC(=O)c3coc(N)n3)c2)cn1 [Example 70, 2-Amino-N-(2-chloro-5-(6-(3-(methylamino)propoxy)pyridin-3-yl)phenyl)oxazole-4-carboxamide] | 10 to 25 | 100 to 250
18 | CC(C)NCCCOc1ccc(-c2ccc(Cl)c(NC(=O)c3coc(N)n3)c2)cn1 [Example 71, 2-Amino-N-(2-chloro-5-(6-(3-(isopropylamino)propoxy)pyridin-3-yl)phenyl)oxazole-4-carboxamide] | 10 to 25 | 100 to 250
19 | CN(C)CCCOc1ccc(-c2ccc(Cl)c(NC(=O)c3coc(N)n3)c2)cn1 [Example 72, 2-Amino-N-(2-chloro-5-{6-[3-(dimethylamino)propoxy]pyridin-3-yl}phenyl)-1,3-oxazole-4-carboxamide] | 10 to 25 | 100 to 250
